Measurements from article PMC7958344, “Development of Novel Inhibitors Targeting the D-Box of the DNA Binding Domain of Androgen Receptor” (International Journal of Molecular Sciences, 2021).
Like-named read-outs stand apart in the source and are kept apart here.

Key:
[1] = tested on: prostate-specific antigen (PSA); assay: Secreted PSA production in LNCaP cells; assay type: cell-based; settings: Homo sapiens, read-out: IC50, secreted PSA levels
Protocol: To further validate compounds as AR inhibitors, we tested their activity by quantifying the effect on the production of endogenous prostate-specific antigen (PSA) in PCa cell lines. PSA is an AR-regulated serine protease and is widely used as a biomarker for PCa.
(§1) LNCaP cells incorporating an AR2PB-eGFP reporter construct (2 × probasin) are previously described. eGFP and secreted PSA assays were performed as described. The mammalian two-hybrid assay was performed in PC3 cells by co-transfection of 15 ng pA-AR or pB-AR plasmids, with 12.5 ng PG5-NLuc reporter. PC3_iV7_3TKNluc or PC3_iNluc cells were seeded in DMEM +5% CSS at 5000 cells/well for 24 h, followed by adding doxycycline/compounds (18 h) and luminescence measurement. LNCaP and 22rv1 cells were starved in RPMI + CSS (48 h) before cell viability tests using the same conditions as above, followed by 30 μL/well PrestoBlue™ Reagent (1 h) and fluorescence measurement (TECAN F200).

[2] = molecular target: T1, AR-LBD (Rattus norvegicus, UniProt P15207); assay: Androgen displacement assay (Polar Screen Androgen Receptor Competitor Green Assay Kit, FluormoneAL Green); assay type: binding; settings: for % Displacement (1 μM) / % Displacement (10 μM): Table 1
T1 construct: displace a fluorescent-tagged androgenic ligand (FluormoneAL Green) from the AR-LBD; purchased
T1 sequence (P15207 651-882 limits assumed): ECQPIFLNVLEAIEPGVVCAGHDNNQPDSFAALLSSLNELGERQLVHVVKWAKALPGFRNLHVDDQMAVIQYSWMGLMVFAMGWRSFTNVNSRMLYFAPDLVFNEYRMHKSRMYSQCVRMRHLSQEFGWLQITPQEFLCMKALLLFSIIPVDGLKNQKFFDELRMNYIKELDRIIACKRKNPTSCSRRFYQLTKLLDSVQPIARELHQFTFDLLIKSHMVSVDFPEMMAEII
Protocol: Androgen displacement was assessed with the Polar Screen Androgen Receptor Competitor Green Assay Kit as per the instructions of the manufacturer.

[3] = Metabolic stability in human microsomes; assay type: in vitro ADME
Description: We then tested the metabolic stability of these molecules using human microsomes. […] This could explain the lower potency of this compound in cell growth assays, as it is metabolized quickly in the media.

[4] = tested on: LNCaP cells; assay: Cell viability (PrestoBlue), LNCaP; assay type: cell-based; settings: for growth inhibition of LNCaP cell line: result in words
Protocol: VPC-17160 and VPC-17281 were further evaluated for their potential to inhibit the growth of prostate cancer cell lines LNCaP (AR-FL dependent) and 22rv1 (AR-V7 dependent).
as §1

[5] = molecular target: T2, full-length AR (Homo sapiens, UniProt P10275, T878A); assay: eGFP AR transcriptional assay in LNCaP cells; assay type: cell-based; settings: for eGFP FL (12 μM) / IC50: LNCaP-eGFP; for eGFP FL (12 μM): Supplementary Table 1; for inhibition of AR-FL expression at 12 μM: result in words; for IC50: read-out: estimated IC50, AR-FL transcriptional activity (eGFP)
T2 construct: endogenous in cells; host or cells: LNCaP with AR2PB-eGFP reporter
T2 sequence (P10275 1-920 T878A): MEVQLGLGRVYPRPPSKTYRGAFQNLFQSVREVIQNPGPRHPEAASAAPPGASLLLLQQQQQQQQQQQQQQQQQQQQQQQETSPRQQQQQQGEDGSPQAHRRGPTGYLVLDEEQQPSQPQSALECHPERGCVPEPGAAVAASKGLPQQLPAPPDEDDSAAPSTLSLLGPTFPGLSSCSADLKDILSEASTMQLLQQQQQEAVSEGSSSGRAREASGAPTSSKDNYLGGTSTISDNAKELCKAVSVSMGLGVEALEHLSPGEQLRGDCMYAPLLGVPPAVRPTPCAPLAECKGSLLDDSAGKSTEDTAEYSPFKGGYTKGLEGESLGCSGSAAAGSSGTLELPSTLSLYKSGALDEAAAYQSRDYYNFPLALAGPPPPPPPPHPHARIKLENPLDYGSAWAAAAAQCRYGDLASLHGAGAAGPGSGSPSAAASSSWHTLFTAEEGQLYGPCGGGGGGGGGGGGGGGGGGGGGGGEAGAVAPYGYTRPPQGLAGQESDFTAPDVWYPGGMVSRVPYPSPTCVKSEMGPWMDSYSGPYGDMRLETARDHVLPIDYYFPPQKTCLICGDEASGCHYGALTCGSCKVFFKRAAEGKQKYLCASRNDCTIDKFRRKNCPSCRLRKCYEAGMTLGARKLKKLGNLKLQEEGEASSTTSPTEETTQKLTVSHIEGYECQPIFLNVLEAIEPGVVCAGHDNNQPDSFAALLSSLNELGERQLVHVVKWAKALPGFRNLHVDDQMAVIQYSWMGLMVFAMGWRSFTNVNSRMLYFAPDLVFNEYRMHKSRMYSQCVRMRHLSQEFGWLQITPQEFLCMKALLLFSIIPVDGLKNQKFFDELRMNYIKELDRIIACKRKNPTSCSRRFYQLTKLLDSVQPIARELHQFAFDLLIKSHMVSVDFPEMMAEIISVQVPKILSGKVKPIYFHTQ
Protocol: In addition, these compounds were also tested for their ability to inhibit full-length AR transcriptional activity in LNCaP cells using an enhanced green fluorescent protein (eGFP) AR transcriptional assay, where the expression of eGFP is under the direct control of an androgen-responsive probasin-derived promoter.
as §1

[6] = tested on: PC3-dox inducible luciferase cell line; assay: Nanoluc counterscreen in PC3-dox inducible luciferase cell line; assay type: cell-based; settings: Supplementary Table 1
Description: Compounds were first screened for their inhibition of AR-V7 transcriptional activity. To do so, we created a PC3 cell-based population that stably encodes (i) a doxycycline-inducible AR-V7 cDNA sequence (pLIX402 tet-inducible promoter, puromycin selection), and (ii) the ARR3tk-nanoLuciferase reporter construct. […] This allowed the screening of the compounds without using the error-prone method of transiently transfecting V7 and reporter constructs. The inhibition efficacy of compounds was measured using doxycycline treatment along with an increasing dose of compounds. From this screen, a panel of compounds was identified with some anti-dimerization activity (Supplementary Table S1). […] To rule out direct effects of the compounds on luciferase expression or PC3 cell viability, we used a PC3-dox inducible luciferase cell line in parallel.
LNCaP cells incorporating an AR2PB-eGFP reporter construct (2 × probasin) are previously described. eGFP and secreted PSA assays were performed as described. […] PC3_iV7_3TKNluc or PC3_iNluc cells were seeded in DMEM +5% CSS at 5000 cells/well for 24 h, followed by adding doxycycline/compounds (18 h) and luminescence measurement. LNCaP and 22rv1 cells were starved in RPMI + CSS (48 h) before cell viability tests using the same conditions as above, followed by 30 μL/well PrestoBlue™ Reagent (1 h) and fluorescence measurement (TECAN F200).

[7] = microsomal stability, Table 1, read-out: Half-Life
[8] = read-out: half-life in microsomes (T1/2)

For O=C(NCc1cccc2ccccc12)NCC(O)(c1cccs1)c1cccs1 [VPC-17160], the IC50 [1] was 2 µM, the “% Displacement (1 μM)” value [2] was 10% and the “% Displacement (10 μM)” value [2] was 29%. For the same molecule, the half-life [3, 7] was 3 min, the half-life [3, 8] was 3 min and the “growth inhibition of LNCaP cell line” value [4] was “inhibited the growth”. The “eGFP FL (12 μM)” value [5] was 76, the “inhibition of AR-FL expression at 12 μM” value [5] was “significant inhibition” and the IC50 [5] was 2 µM. The “Nanoluc Counterscreen (10 μM)” value [6] was 20%.
In the case of CC(O)(CNC(=O)C=Cc1ccnc2ccccc12)c1ccsc1 (stereo not shown) [VPC-17281], the IC50 [1] is reported as 6 µM, the “% Displacement (1 μM)” value [2] is reported as 0% and the “% Displacement (10 μM)” value [2] is reported as 0%. The “hormone displacement at 50 μM” value ([2]; high concentrations (50 μM), result in words) was “no significant hormone displacement”, the half-life [3, 7] was 90 min and the half-life [3, 8] was > 90 min. The IC50 ([4]; Homo sapiens, LNCaP (AR-FL dependent), read-out: IC50, cell growth) was 25 µM, the “growth inhibition of LNCaP cell line” value [4] was “inhibited the growth” and the “eGFP FL (12 μM)” value [5] was 100. For the same molecule, the “inhibition of AR-FL expression at 12 μM” value [5] was “significant inhibition”, the IC50 [5] was 5 µM and the “Nanoluc Counterscreen (10 μM)” value [6] was 10%.
